# Several values for one entry are separate records, joined by “and”; a condition that tells them apart may be missing. Equal values may be shown once. Read-outs that look alike come from different tables or passages of the source.
# Tests used:
# [1] = Pharmacokinetics, plasma and tumor concentration by HPLC in HCT-116 tumor-bearing SCID mice; type: in vivo; settings: for concentration in plasma / concentration in tumor: 2.25 mg/mouse intravenously
# Procedure: Samples from HCT-116 tumor-bearing SCID mice were analyzed via high performance liquid chromatography (HPLC) following administration of inventive compositions. […] At different time points following administration of the inventive compounds (up to 24 hours), individual mice were killed and both blood and tumor samples were removed for HPLC analysis.
# In particular, a Waters 2690 Separation Module (Waters Corp., Milford, Mass.) connected to a Waters 2487 Dual wavelength absorbance detector controlled by Millennium32 v3.20 was used for separation, detection, data acquisition, integration and quantitation. An external standard calibration method was used to quantify the inventive compounds in each sample. A Symmetry Shield RP18 5 μm ([…]) analytical column (Waters Corp., Milford, Mass.) was used in the separation of each inventive compound. The column temperature was maintained at 30° C. 25 μl of each sample was injected per analytical run.
# The mobile phase consisted of 99% water/1% acetonitrile as the initial gradient composition for the inventive composition. A gradient analysis from deionized water to acetonitrile at a flow rate of 1 mL/min for each tested compound is set forth in Tables 9 and 10. The detection wavelength for the inventive composition was 278 nm, and the retention time was 7.8 minutes.
# For the in vivo pharmacokinetic trial, 15 mice were inoculated bilaterally and subcutaneously in the inguinal area with 10^7 tumor cells (by a 16-gauge needle), such as HCT-116 cells or trocar-implanted Colon 38 cells. Each of the compounds 15-O-(3′-hydroxy-3′-isopropyl-4′-methylpentanoyl)bruceolide and 15-(3-isopropyl-4-methyl-2-pentenoyl)-bruceolide was administered intravenously at the MTD in 0.25 mL via the tail vein. Each compound was administered to 10 animals when the tumors reached a measurable size (i.e., 80 to 300 mm^3) at a dose determined from the MTD study. The remaining five animals served as time-point controls. At prescribed times thereafter, one animal per time point was sacrificed, and blood and bilateral tumors were harvested for analysis of drug concentrations. Specifically, mice were sacrificed for pharmacological analysis at 1, 5, 15, 30, 60, 120, 240, 360 minutes and 12 and 24 hours following administration of the inventive compounds.
# [2] = tested on: CCRF-CEM (human leukemia); test: Disk diffusion assay, zone of inhibition, CCRF-CEM; type: cell-based; settings: 1 mg/mL
# [3] = tested on: murine CFU-GM; test: Disk diffusion assay, zone of inhibition, murine CFU-GM; type: cell-based; settings: 1 mg/mL
# [4] = tested on: L1210 (murine leukemia); test: Disk diffusion assay, zone of inhibition, L1210; type: cell-based; settings: 1 mg/mL
# [5] = tested on: human CFU-GM; type: cell-based; settings: 1 mg/mL
# Procedure: A disk diffusion assay was performed to define the differential cell killing ability of 15-O-(3′-hydroxy-3′-isopropyl-4′-methylpentanoyl)bruceolide. Seven cell types were assayed: L1210 (ATCC CCL-219) (murine leukemia), CCRF-CEM (ATCC CCL-119) (human leukemia), Colon 38 (murine colon adenocarcinoma), HCT116 (ATCC CCL-247) (human colorectal carcinoma), H125 (human lung carcinoma). The murine and human granulocyte/macrophage progenitor cell line (CFU-GM), served as controls.
# For CFU-GM cells, the femoral marrow of BD2F1 mice was flushed with MEM alpha (2 mL per femur). The cells were passed through an 18 gauge needle twice and the monodispersed suspension was counted. A total of 1.5×10^6 cells were plated in 3 mL of 0.3% agar with the addition of 10% L cell conditioned media, which provided colony stimulating factor, in MEM-alpha plus 10% BCS. For human CFU-GM, the cells were obtained from Poietic Technologies, Inc. (Gaithersburg, Md.) and washed twice with PBS before being titered and added to the agar mixture. The same cell number, culture conditions, and conditioning factors used with respect to the murine CFU-GM cells were used with the human cells, except that the cultures were assessed after 10 days of incubation.
# A 15 μl sample of each compound was dropped onto a 6.5 mm disk (Baxter filter disks). The disks were allowed to dry overnight and then placed close to the edge of a petri dish. Depending upon the cell type, the dishes were incubated for 7 to 10 days, and examined by an inverted stereo-microscope (10×) for measurement of the zone of inhibition. The zone of inhibition was measured from the edge of the filter disk to the beginning of normal-sized colony formation. The diameter of the filter disk, 6.5 mm, was arbitrarily taken as a zone of 200 units. Compounds that were selective for killing solid tumors, as compared to leukemia or normal cells (“solid tumor selective”) were defined as those compounds which produced a difference in zones between solid tumor cells and either normal or leukemia cells of at least 250 units. The results of this analysis are set forth in Table 4, which illustrates the relative diameters of the zones of inhibition by various drugs on the growth of the respective cell types at various drug dilutions.
# [6] = tested on: WiDr; test: MTT cytotoxicity assay (% kill), WiDr; type: cell-based, human; settings: 0.1 μg/mL, 1 h exposure
# Procedure: The following human tumor cell lines were obtained and cultured in sextuplicate microwells at 37° C. and 5% CO2 in humidified air and in 10% FBS in Eagles MEM: SK—N—FI, SK—N-AS, LS-174T, WiDr, HuTu-80, MCF7, NCI-AR, MES-Sar, and PL-45. Cells from each cell line were separately treated with an amount of one of the compounds of Formula I, II, or III (see Table 1). Cells were exposed to each compound (0.1 μg/mL or 1.0 μg/mL) for one hour or 24 hours, rinsed with drug-free media, and incubated for an additional five days. The number of viable cells after five days was measured using an MTT (3-(4,5-dimethylthiazol-2-yl)-2,5-diphenyltetrazolium bromide) assay (see, e.g., Mosmann, J. Immunol. Methods, 65(1-2), 55-63 (1983)).
# The cytotoxicity of each drug was determined and expressed as the percent of cells killed (“% kill”).
# [7] = no dilution, 15 μl on disk, 6.5 mm = 200 units
Compound,"zone of inhibition, CEM ([2]; dilution 1/10)","zone of inhibition, CEM ([2]; dilution 1/100)","zone of inhibition, murine CFU-GM ([3]; dilution 1/10) [units]","zone of inhibition, murine CFU-GM ([3]; dilution 1/100)","zone of inhibition, murine CFU-GM ([3]; dilution 1/1000) [units]","zone of inhibition, L1210 ([4]; dilution 1/10) [units]","zone of inhibition, L1210 ([4]; dilution 1/100)","zone of inhibition, L1210 [4, 7] [units]","zone of inhibition, human CFU-GM ([5]; dilution 1/10) [units]","zone of inhibition, human CFU-GM ([5]; dilution 1/100) [units]",also measured
COC(=O)[C@@]12OC[C@@]34C1[C@@H](OC(=O)CC(O)(C(C)C)C(C)C)C(=O)O[C@@H]3C[C@H]1C(C)=C(O)C(=O)C[C@]1(C)[C@H]4[C@@H](O)[C@@H]2O (stereo partly drawn) [15-O-(3′-hydroxy-3′-isopropyl-4′-methylpentanoyl)bruceolide],650 units and 700 units,100 units and 150 units,50,300 units and 200 units,0,550,200 units,1000,900,600,"survival of mouse designated for analysis ([1]; 24 hours post administration, 2.25 mg/mouse intravenously (above the MTD)): did not survive; concentration in plasma ([1]; one hour post administration): approximately 7 μg/mL; concentration in tumor ([1]; one hour post administration): approximately 7 μg/mL; concentration in plasma ([1]; six hours post administration): 100 ng/mL; concentration in tumor ([1]; six hours post administration): 800 ng/mL; concentration in plasma ([1]; two hours post administration): 1500 ng/mL; concentration in tumor ([1]; two hours post administration): approximately 4 μg/mL; zone of inhibition, murine CFU-GM ([3]; dilution 1/400): 100 units; zone of inhibition, L1210 ([4]; dilution 1/400): 0 units; % kill, WiDr [6]: 0%"
COC(=O)[C@@]12OC[C@@]34C1[C@@H](OC(=O)C=C(C(C)C)C(C)C)C(=O)O[C@@H]3C[C@H]1C(C)=C(O)C(=O)C[C@]1(C)[C@H]4[C@@H](O)[C@@H]2O (stereo partly drawn) [15-O-(3′-isopropyl-4′-methyl-2′-pentenoyl)-bruceolide],800 units,400 units,650,350 units and 600 units,0,1000,650 units and 600 units,>1000,>1000,550,"concentration at 0.5 h ([1]; SCID, in vivo, 0.5 hour time point, intravenous (FIG. 8: 0.075 mg/mouse)): 100 ng/mL; concentration at 1 h ([1]; SCID, in vivo, 1 hour time point, intravenous (FIG. 8: 0.075 mg/mouse), below sensitivity of the assay): < 50 ng/mL; level in the tumor, FIG. 8 ([1]; all time points, 0.075 mg/mouse intravenously, detection limit 0.05 μg/mL): below the detection limit; concentration in tumor samples ([1]; entire 24 hour sampling period, intravenous (FIG. 8: 0.075 mg/mouse)): below the sensitivity level of the assay; concentration in vivo (plasma), FIG. 8 ([1]; time points 1 to 24 hours, 0.075 mg/mouse intravenously, below detection limit): < 50 ng/mL; zone of inhibition, L1210 ([4]; dilution 1/1000): 150 units"

# Reference: patent US20060281807A1, “Quassinoid compositions for the treatment of cancer and other proliferative diseases” (Tapestry Pharmaceuticals, Inc., priority 2005, published 2006)
